Molecular target: recombinant human Mcl-1 (Mcl-1/Bim interaction) (Homo sapiens (Human), UniProt Q07820)
Test: biochemical
Type: binding
Conditions: cell free Mcl-1:Bim TR-FRET; read-out: Mcl-1 HTRF IC50
Experimental: Cell free Mcl-1:Bim Affinity Assay (Mcl-1 HTRF)
The inhibition of the Mcl-1/Bim interaction was measured using a time-resolved fluorescence resonance energy transfer (TR-FRET) assay. The recombinant human Mcl-1 (C-terminally 6×His tagged Mcl-1 containing residues 171-327) was generated at Amgen Inc (Thousand Oaks, Calif.). A biotinylated peptide derived from human Bim (residues 51-76) was purchased from CPC Scientific (San Jose, Calif.). The TR-FRET assay was conducted in a 384-well white OptiPlate™ (PerkinElmer, Waltham, Mass.) in a total volume of 40 μL. The reaction mixture contained 0.1 nM Mcl-1(171-327), 0.05 nM biotin-Bim(51-76), 0.05 nM LANCE® Eu-W1024 Anti-6×His (PerkinElmer), 0.072 nM Streptavidin-Xlent (Cisbio, Bedford, Mass.), and serially diluted test compounds in the binding buffer of 20 mM Hepes, pH 7.5, 150 mM NaCl, 0.016 mM Brij® 35, and 1 mM dithiothreitol. Test compounds were pre-incubated with Mcl-1(171-327) and biotin-Bim (51-76) for 60 min before addition of the detection mixture (LANCE® Eu-W1024 Anti-6×His and Streptavidin-Xlent). The reaction plates were further incubated overnight and then were read on an Envision® multimode reader (PerkinElmer). Fluorescence signals were measured at 620 nm (40-nm bandwidth) and 665 nm (7.5-nm bandwidth) with a 60 μs delay after excitation at 320 nm (75-nm bandwidth). The signal ratio at 665/620 nm corresponded to the Mcl-1/Bim interaction and was used in all data analyses. The IC50 values of test compounds were determined from duplicate data by analyzing competition curves using a four-parameter sigmoidal model in GraphPad Prism (GraphPad Software, San Diego, Calif.) or in Genedata Screener® (Genedata, Basel, Switzerland).

recombinant human Mcl-1 (Mcl-1/Bim interaction), sequence (Q07820 171-327): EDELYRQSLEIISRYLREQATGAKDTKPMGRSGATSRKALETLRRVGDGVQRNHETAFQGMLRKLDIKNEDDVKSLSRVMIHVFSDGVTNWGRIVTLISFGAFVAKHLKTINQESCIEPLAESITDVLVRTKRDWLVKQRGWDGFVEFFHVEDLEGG

Structure (SMILES) | IC50 [pM]
CO[C@]1(CN2CCN3CCS(=O)(=O)C[C@@H]3C2)/C=C/C[C@H](C)[C@@H](C)S(=O)(=O)NC(=O)c2ccc3c(c2)N(C[C@@H]2CC[C@H]21)C[C@@]1(CCCc2cc(Cl)ccc21)CO3 (stereo in doubt) [Example 215] | 149
C[C@@H]1[C@@H](C)C/C=C/C(O)(CN2CCN3CCCC[C@@H]3C2)[C@@H]2CC[C@H]2CN2C[C@@]3(CCCc4cc(Cl)ccc43)COc3ccc(cc32)C(=O)NS1(=O)=O (single isomer, unassigned) [Example 243] | 78
CO[C@]1(CN2CCN3CCS(=O)(=O)C[C@@H]3C2)/C=C/C[C@H](C)[C@@H](C)S(=O)(=O)NC(=O)c2ccc3c(c2)N(C[C@@H]2CC[C@H]21)C[C@@]1(CCCc2cc(Cl)ccc21)CO3 (stereo in doubt) [Example 219] | 73
C[C@@H]1[C@@H](C)C/C=C/[C@]2(CN(Cc3ccccc3)CCO2)[C@@H]2CC[C@H]2CN2C[C@@]3(CCCc4cc(Cl)ccc43)COc3ccc(cc32)C(=O)NS1(=O)=O [Example 138, (1S,3′R,6′R,7′R,8′E,11′S,12′R)-4″-benzyl-6-chloro-11′,12′-dimethyl-3,4-dihydro-2H,15′H-dispiro[naphthalene-1,22′-[20]oxa[13]thia[1,14]diazatetracyclo[14.7.2.0˜3,6˜.0˜19,24˜]pentacosa[8,16,18,24]tetraene-7′,2″-[1,4]oxazinan]-15′-one 13′,13′-dioxide] | 26700
CC(C)N(CCO)C[C@]1(O)/C=C/C[C@H](C)[C@@H](C)S(=O)(=O)NC(=O)c2ccc3c(c2)N(C[C@@H]2CC[C@H]21)C[C@@]1(CCCc2cc(Cl)ccc21)CO3 [Example 126, (1S,3′R,6′R,7′S,8′E,11′S,12′R)-6-chloro-7′-hydroxy-7′-(((2-hydroxyethyl)(1-methylethyl)amino)methyl)-11′,12′-dimethyl-3,4-dihydro-2H,15′H-spiro[naphthalene-1,22′-[20]oxa[13]thia[1,14]diazatetracyclo[14.7.2.0˜3,6˜.0˜19,24˜]pentacosa[8,16,18,24]tetraen]-15′-one 13′,13′-dioxide] | 627
CO[C@]1(CN2CCN3CCN(C(C)=O)C[C@@H]3C2)/C=C/C[C@H](C)[C@@H](C)S(=O)(=O)NC(=O)c2ccc3c(c2)N(C[C@@H]2CC[C@H]21)C[C@@]1(CCCc2cc(Cl)ccc21)CO3 (single isomer, unassigned) [Example 229] | 619
CCO[C@]1(CN2CCN(C(C)(C)C)CC2)/C=C/C[C@H](C)[C@@H](C)S(=O)(=O)NC(=O)c2ccc3c(c2)N(C[C@@H]2CC[C@H]21)C[C@@]1(CCCc2cc(Cl)ccc21)CO3 [Example 6, (1S,3′R,6′R,7′R,8′E,11′S,12′R)-7′-((4-tert-butyl-1-piperazinyl)methyl)-6-chloro-7′-ethoxy-11′,12′-dimethyl-3,4-dihydro-2H,15′H-spiro[naphthalene-1,22′-[20]oxa[13]thia[1,14]diazatetracyclo[14.7.2.0˜3,6˜.0˜19,24˜]pentacosa[8,16,18,24]tetraen]-15′-one 13′,13′-dioxide] | 79
CO[C@]1(CN2CCN3CCN(C(C)=O)C[C@@H]3C2)/C=C/C[C@H](C)[C@@H](C)S(=O)(=O)NC(=O)c2ccc3c(c2)N(C[C@@H]2CC[C@H]21)C[C@@]1(CCCc2cc(Cl)ccc21)CO3 (single isomer, unassigned) [Example 230] | 51
COCC[C@@H]1[C@@H](C)C/C=C/[C@@](CN2CCN(C(C)C)[C@H](C)C2)(OC)[C@@H]2CC[C@H]2CN2C[C@@]3(CCCc4cc(Cl)ccc43)COc3ccc(cc32)C(=O)NS1(=O)=O [Example 12, (1S,3′R,6′R,7′R,8′E,11′S,12′R)-6-chloro-7′-methoxy-12′-(2-methoxyethyl)-11′-methyl-7′-(((3R)-3-methyl-4-(1-methylethyl)-1-piperazinyl)methyl)-3,4-dihydro-2H,15′H-spiro[naphthalene-1,22′-[20]oxa[13]thia[1,14]diazatetracyclo[14.7.2.0˜3,6˜.0˜19,24˜]pentacosa[8,16,18,24]tetraen]-15′-one 13′,13′-dioxide] | 72
CO[C@@]1(CN2CCN3CCN(S(C)(=O)=O)C[C@@H]3C2)/C=C/C[C@H](C)[C@@H](C)S(=O)(=O)NC(=O)c2ccc3c(c2)N(C[C@@H]2CC[C@H]21)C[C@@]1(CCCc2cc(Cl)ccc21)CO3 (stereo in doubt) [Example 228] | 200
CCO[C@]1(CN2CCN(C(C)C)CC2)/C=C/C[C@H](C)[C@@H](CCOC)S(=O)(=O)NC(=O)c2ccc3c(c2)N(C[C@@H]2CC[C@H]21)C[C@@]1(CCCc2cc(Cl)ccc21)CO3 [Example 16, (1S,3′R,6′R,7′R,8′E,11′S,12′R)-6-chloro-7′-ethoxy-12′-(2-methoxyethyl)-11′-methyl-7′-((4-(1-methylethyl)-1-piperazinyl)methyl)-3,4-dihydro-2H,15′H-spiro[naphthalene-1,22′-[20]oxa[13]thia[1,14]diazatetracyclo[14.7.2.0˜3,6˜.0˜19,24˜]pentacosa[8,16,18,24]tetraen]-15′-one 13′,13′-dioxide] | 65
CO[C@@]1(CN2CCN(C3COC3)CC2)/C=C/C[C@H](C)[C@@H](C)S(=O)(=O)NC(=O)c2ccc3c(n2)N(C[C@@H]2CC[C@H]21)C[C@@]1(CCCc2cc(Cl)ccc21)CO3 [Example 19, (1S,3′R,6′R,7′S,8′E,11′S,12′R)-6-chloro-7′-methoxy-11′,12′-dimethyl-7′-((4-(3-oxetanyl)-1-piperazinyl)methyl)-3,4-dihydro-2H,15′H-spiro[naphthalene-1,22′-[20]oxa[13]thia[1,14,25]triazatetracyclo[14.7.2.0˜3,6˜.0˜19,24˜]pentacosa[8,16,18,24]tetraen]-15′-one 13′,13′-dioxide] | 125
C[C@@H]1[C@@H](C)C/C=C/[C@@](O)(CN2CCOC[C@@H]2Cn2ccnc2)[C@@H]2CC[C@H]2CN2C[C@@]3(CCCc4cc(Cl)ccc43)COc3ccc(cc32)C(=O)NS1(=O)=O [Example 100, (1S,3′R,6′R,7′S,8′E,11′S,12′R)-6-chloro-7′-hydroxy-7′-(((3S)-3-(1H-imidazol-1-ylmethyl)-4-morpholinyl)methyl)-11′,12′-dimethyl-3,4-dihydro-2H,15′H-spiro[naphthalene-1,22′-[20]oxa[13]thia[1,14]diazatetracyclo[14.7.2.0˜3,6˜.0˜19,24˜]pentacosa[8,16,18,24]tetraen]-15′-one 13′,13′-dioxide] | 188
CO[C@@]1(CN2CCN3CCN(C(C)=O)C[C@@H]3C2)/C=C/C[C@H](C)[C@@H](C)S(=O)(=O)NC(=O)c2ccc3c(c2)N(C[C@@H]2CC[C@H]21)C[C@@]1(CCCc2cc(Cl)ccc21)CO3 (stereo in doubt) [Example 214] | 71
CCO[C@]1(CN2CCN3CCCC[C@@H]3C2)/C=C/C[C@H](C)[C@@H](CCOC)S(=O)(=O)NC(=O)c2ccc3c(c2)N(C[C@@H]2CC[C@H]21)C[C@@]1(CCCc2cc(Cl)ccc21)CO3 [Example 15, (1S,3′R,6′R,7′R,8′E,11′S,12′R)-6-chloro-7′-ethoxy-12′-(2-methoxyethyl)-11′-methyl-7′-((9aR)-octahydro-2H-pyrido[1,2-a]pyrazin-2-ylmethyl)-3,4-dihydro-2H,15′H-spiro[naphthalene-1,22′-[20]oxa[13]thia[1,14]diazatetracyclo[14.7.2.0˜3,6˜.0˜19,24˜]pentacosa[8,16,18,24]tetraen]-15′-one 13′,13′-dioxide] | 119
CO[C@@]1(CN2CCN3CCN(C(C)=O)C[C@@H]3C2)/C=C/C[C@H](C)[C@@H](C)S(=O)(=O)NC(=O)c2ccc3c(c2)N(C[C@@H]2CC[C@H]21)C[C@@]1(CCCc2cc(Cl)ccc21)CO3 (single isomer, unassigned) [Example 225] | 87
CC[C@@H]1CC/C=C/[C@@](CN2CCN3CCCC[C@@H]3C2)(OC)[C@@H]2CC[C@H]2CN2C[C@@]3(CCCc4cc(Cl)ccc43)COc3ccc(cc32)C(=O)N(C)S1(=O)=O [Example 33, (1S,3′R,6′R,7′R,8′E,12′R)-6-chloro-12′-ethyl-7′-methoxy-14′-methyl-7′-((9aR)-octahydro-2H-pyrido[1,2-a]pyrazin-2-ylmethyl)-3,4-dihydro-2H,15′H-spiro[naphthalene-1,22′-[20]oxa[13]thia[1,14]diazatetracyclo[14.7.2.0˜3,6˜.0˜19,24˜]pentacosa[8,16,18,24]tetraen]-15′-one 13′,13′-dioxide] | 8250
C[C@@H]1[C@@H](C)C/C=C/[C@@](O)(CNC(C)(C)C)[C@@H]2CC[C@H]2CN2C[C@@]3(CCCc4cc(Cl)ccc43)COc3ccc(cc32)C(=O)NS1(=O)=O [Example 125, (1S,3′R,6′R,7′S,8′E,11′S,12′R)-7′-((tert-butylamino)methyl)-6-chloro-7′-hydroxy-11′,12′-dimethyl-3,4-dihydro-2H,15′H-spiro[naphthalene-1,22′-[20]oxa[13]thia[1,14]diazatetracyclo[14.7.2.0˜3,6˜.0˜19,24˜]pentacosa[8,16,18,24]tetraen]-15′-one 13′,13′-dioxide] | 6100
CO[C@@]1(CN2CCN(CC(=O)O)CC2)/C=C/C[C@H](C)[C@@H](C)S(=O)(=O)NC(=O)c2ccc3c(c2)N(C[C@@H]2CC[C@H]21)C[C@@]1(CCCc2cc(Cl)ccc21)CO3 [Example 270, (4-(((1S,3′R,6′R,7′S,8′E,11′S,12′R)-6-chloro-7′-methoxy-11′,12′-dimethyl-13′,13′-dioxido-15′-oxo-3,4-dihydro-2H-spiro[naphthalene-1,22′-[20]oxa[13]thia[1,14]diazatetracyclo[14.7.2.0˜3,6˜.0˜19,24˜]pentacosa[8,16,18,24]tetraen]-7′-yl)methyl)-1-piperazinyl)acetic acid] | 35
CO[C@@]1(CN2CCN3CCN(C(C)=O)C[C@@H]3C2)/C=C/C[C@H](C)[C@@H](C)S(=O)(=O)NC(=O)c2ccc3c(c2)N(C[C@@H]2CC[C@H]21)C[C@@]1(CCCc2cc(Cl)ccc21)CO3 (single isomer, unassigned) [Example 226] | 57
C[C@@H]1[C@@H](C)C/C=C/C(O)(CN2CCN3CCCC[C@@H]3C2)[C@@H]2CC[C@H]2CN2C[C@@]3(CCCc4cc(Cl)ccc43)COc3ccc(cc32)C(=O)NS1(=O)=O (single isomer, unassigned) [Example 242] | 249
